Results from PMC6421105 (Bioorganic & medicinal chemistry, 2019).

What was measured:
Vero cells = assay type: cell-based; conditions: for Cytotoxicity ED50: treatment for 72 h; for Cytotoxicity at 20 µM / Cytotoxicity at 15 µM: 72 h
T. cruzi (amastigotes) = experiment: T. cruzi amastigote assay; assay type: cell-based, Trypanosoma cruzi; conditions: for IC50: Trypanosoma cruzi, Vero, 72 h, read-out: T. cruzi (amastigotes) ED50; for Antiparasitic activity against intracellular T. cruzi (in words): amastigotes
intracellular T. cruzi = conditions: racemic mixture; cited from earlier work
[1] = tested on: mitochondrial and glycosomal TcSQS (wild type); conditions: membrane protein; cited from earlier work
truncated TcSQS = conditions: soluble enzyme cloned and expressed in Escherichia coli; cited from earlier work

With “(2-(4-Phenoxyphenoxy)ethyl)(trifluoromethyl)selane [Compound 11]” the “Cytotoxicity ED50” value (Vero cells) was > 20 µM.

For `N#C[Se]CCOc1ccccc1` [Compound 21, Phenoxyethyl selenocyanate], the IC50 (T. cruzi (amastigotes)) was > 10 µM and the “Cytotoxicity at 20 µM” value (Vero cells) was “^**cytotoxic at 20 µM”.

In the case of `N#C[Se]CCOc1ccc([N+](=O)[O-])cc1` [Compound 22, 4-Nitrophenoxyethyl selenocyanate], the IC50 (T. cruzi (amastigotes)) is reported as 3.87 ± 1.3 µM, the “Cytotoxicity at 15 µM” value (Vero cells) is reported as “^**cytotoxic at 20 µM, 15 µM” and the “Cytotoxicity at 20 µM” value (Vero cells) is reported as “^**cytotoxic at 20 µM, 15 µM”.

In the case of `N#C[Se]CC1Cc2ccc(Oc3ccccc3)cc2O1` (racemic) [(±)-8], the IC50 (T. cruzi (amastigotes)) is listed as 0.0939 ± 0.025 µM and the “ED50 against intracellular T. cruzi” value (intracellular T. cruzi) is listed as 0.083 µM.

For `N#C[Se]CCOc1ccccc1Oc1ccccc1` [Compound 43, 2-Phenoxyphenoxyethyl selenocyanate], the IC50 (T. cruzi (amastigotes)) was > 10 µM and the “Antiparasitic activity against intracellular T. cruzi (in words)” value (“Antiparasitic activity” for short) (T. cruzi (amastigotes)) was “free of anti-T. cruzi activity”.

For `N#CCCCOc1ccc(Oc2ccccc2)cc1` [Compound 14, 3-(4-Phenoxyphenoxy)propyl cyanide], the IC50 (T. cruzi (amastigotes)) was > 10 µM and the “Antiparasitic activity” value (T. cruzi (amastigotes)) was “inactive”.

For `FC(F)(F)[Se]CCOc1cccc(Oc2ccccc2)c1` [Compound 12, (2-(3-Phenoxyphenoxy)ethyl)(trifluoromethyl)selane], the IC50 (T. cruzi (amastigotes)) was > 1 µM.

For `N#CCCOc1ccc(Oc2ccccc2)cc1` [Compound 13, 4-Phenoxyphenoxyethyl cyanide], the IC50 (T. cruzi (amastigotes)) was > 10 µM and the “Antiparasitic activity” value (T. cruzi (amastigotes)) was “inactive”.

With `N#CSCCOc1ccccc1Oc1ccccc1` [Compound 44, 2-Phenoxyphenoxyethyl thiocyanate] the IC50 (T. cruzi (amastigotes)) was > 10 µM and the “Antiparasitic activity” value (T. cruzi (amastigotes)) was “free of anti-T. cruzi activity”.

In the case of `FC(F)(F)SCCOc1ccc(Oc2ccccc2)cc1` [Compound 9, (2-(4-Phenoxyphenoxy)ethyl)(trifluoromethyl)sulfane], the IC50 (T. cruzi (amastigotes)) is reported as > 10 µM.

In the case of `COc1ccc(OCC[Se]C#N)cc1` [Compound 20, 4-Methoxyphenoxyethyl selenocyanate], the IC50 (T. cruzi (amastigotes)) is reported as > 10 µM, the “T. cruzi (amastigotes) inhibition at 6 µM” value (T. cruzi (amastigotes); at 6 µM) is reported as “no inhibition” and the “Cytotoxicity at 15 µM” value (Vero cells) is reported as “^**cytotoxic at 20 µM, 15 µM”. For the same compound, the “Cytotoxicity at 20 µM” value (Vero cells) was “^**cytotoxic at 20 µM, 15 µM”.

In the case of `N#CSCCOc1ccc(Oc2ccccc2)cc1` [WC-9, 4-Phenoxyphenoxyethyl Thiocyanate], the “Inhibition of TcSQS enzymatic activity (in words)” value [1] is listed as “non-competitive nanomolar inhibitor” and the “Inhibition of truncated TcSQS (in words)” value (truncated TcSQS) is listed as “inactive”.

Work on `O=C(Cn1ccnc1[N+](=O)[O-])NCc1ccccc1` [benznidazole, reference compound] yielded an IC50 (T. cruzi (amastigotes)) of 2.48 ± 0.45 µM.

In the case of “(2-(3-Phenoxyphenoxy)ethyl)(trifluoromethyl)sulfane [Compound 10]”, the “T. cruzi (amastigotes) % inhibition at 1.0 µM” value (T. cruzi (amastigotes); at 1.0 µM) is reported as 6.7% and the “Cytotoxicity ED50” value (Vero cells) is reported as > 20 µM.
